Source: article PMC11555678, “Improved Broad Spectrum Antifungal Drug Synergies with Cryptomycin, a Cdc50-Inspired Antifungal Peptide” (ACS Infectious Diseases, 2024)
≈ marks a conversion by molar mass, not a printed value. Read-outs that look alike come from different tables or passages of the source.

Experiments:
C. auris B11245 [1] = assay type: cell-based, Candida auris; details: RPMI1640, 37 °C, 48 h, CAS: paradoxical growth; for MIC of antifungal in combination with KKOO: MIC = <20% growth; for MIC of antifungal in combination with KKOO-NH2: MIC = well with <20% growth
Experimental: (§1) All microdilution assays with fungi were carried out in accordance with CLSI protocols from M27 for yeasts and M38 for filamentous fungi, respectively, unless otherwise specified.[64],[65] Briefly, 96-well plates were charged with RPMI1640 media, with operating volume in the first column, 200 μL, and half operating volume, 100 μL, in the remaining wells. Drug stock solution in DMSO was aliquoted into the first well in each row. Half of the volume in the dosed well was serially diluted 2-fold until column 11. Column 11 was used as the negative growth control, and column 12 was used as the positive growth control. ON yeast cultures in YPD were washed twice in DD-H2O, resuspended in PBS, and adjusted to 5000 cfu/mL in RPMI. The 96-well plate was inoculated with 100 μL aliquots of cell suspension per well. Plates were incubated at 37 °C for 2 days.
(§2) To assess drug synergy, the initial media charged to the plate contained the peptide at twice the final operating concentration; the remaining processing steps were identical to the MIC experiment. Upon addition of 100 μL of inoculant, the final operating concentration was achieved. Control MIC plates were prepared alongside drug synergy plates to account for the day-to-day variability in any individual MIC. FIC index is computed using eq 1. All MIC assays and drug synergy assays were completed with two technical replicates per 96-well plate and a minimum of two biological replicates per drug combination. If a difference in MIC between the two technical replicates on the plate were observed, only the higher concentration was reported as the MIC to reduce the possibility of type 1 error (false positive) [drawing 1] 1

Cn MRL862 = assay type: cell-based, Cryptococcus neoformans; details: RPMI1640, 37 °C, 48 h
Experimental: as §1, §2

C. albicans SC5413 [2] = test: microbe, parasite or virus in culture; assay type: cell-based, Candida albicans; details: Candida albicans, SC5413; compound alone; RPMI1640, 37 °C, 48 h; read-out: MIC
Experimental: as §1

A. fumigatus AF293 = test: microbe, parasite or virus in culture; assay type: cell-based, Aspergillus fumigatus; details: Aspergillus fumigatus, AF293, 48 h
Experimental: as §1

C. auris B11245 [3] = test: microbe, parasite or virus in culture; assay type: cell-based, Candida auris; details: Candidozyma auris, B11245; compound alone; RPMI1640, 37 °C, 48 h; * = paradoxical growth observed (CAS); read-out: MIC
Experimental: as §1

C. albicans SC5413 [4] = assay type: cell-based, Candida albicans; details: RPMI1640, 37 °C, 48 h; for MIC of antifungal in combination with KKOO: azole MICs unclear (intermediate phenotype); for MIC of antifungal in combination with KKOO-NH2: azole MICs could not be determined (intermediate phenotype)
Experimental: as §1, §2

Cg FKS1 S629P = test: Drug synergy (MIC in peptide-supplemented media); assay type: cell-based, Candida glabrata; details: RPMI1640, 37 °C, 48 h
Experimental: as §1, §2

Cg FKS2 S663P = test: Drug synergy (MIC in peptide-supplemented media); assay type: cell-based, Candida glabrata; details: RPMI1640, 37 °C, 48 h
Experimental: as §1, §2

CCC(C)n1ncn(-c2ccc(N3CCN(c4ccc(OCC5COC(Cn6cncn6)(c6ccc(Cl)cc6Cl)O5)cc4)CC3)cc2)c1=O (centres unmarked) [ITR, itraconazole]
MIC of antifungal in combination with KKOO (C. auris B11245 [1]; +0 μg/mL KKOO (control)): 0.5 µg/mL | MIC of antifungal in combination with KKOO-NH2 (C. auris B11245 [1]; +0 μg/mL KKOO-NH2 (control)): 0.5 µg/mL | MIC of antifungal in combination with KKOO-NH2 (C. auris B11245 [1]; +1 μg/mL KKOO-NH2): 0.125 µg/mL | MIC of antifungal in combination with KKOO (C. auris B11245 [1]; +1 μg/mL KKOO): 0.25 µg/mL | MIC of antifungal in combination with KKOO-NH2 (C. auris B11245 [1]; +2 μg/mL KKOO-NH2): 0.062 µg/mL | MIC of antifungal in combination with KKOO (C. auris B11245 [1]; +2 μg/mL KKOO): 0.062 µg/mL | MIC of antifungal in combination with KKOO-NH2 (C. auris B11245 [1]; +4 μg/mL KKOO-NH2): 0.016 µg/mL | MIC of antifungal in combination with KKOO (C. auris B11245 [1]; +4 μg/mL KKOO): 0.031 µg/mL | MIC of antifungal in combination with KKOO (Cn MRL862; +0 μg/mL KKOO (control)): 0.062 µg/mL | MIC of antifungal in combination with KKOO-NH2 (Cn MRL862; +0 μg/mL KKOO-NH2 (control)): 0.062 µg/mL | MIC of antifungal in combination with KKOO-NH2 (Cn MRL862; +1 μg/mL KKOO-NH2): 0.062 µg/mL | MIC of antifungal in combination with KKOO (Cn MRL862; +1 μg/mL KKOO): 0.031 µg/mL | MIC of antifungal in combination with KKOO-NH2 (Cn MRL862; +2 μg/mL KKOO-NH2): 0.016 µg/mL | MIC of antifungal in combination with KKOO (Cn MRL862; +2 μg/mL KKOO): 0.016 µg/mL | MIC of antifungal in combination with KKOO-NH2 (Cn MRL862; +4 μg/mL KKOO-NH2): 0.004 µg/mL | MIC of antifungal in combination with KKOO (Cn MRL862; +4 μg/mL KKOO): 0.556 µg/mL | MIC (C. albicans SC5413 [2]): > 1 µg/mL | MIC (A. fumigatus AF293): 0.125 µg/mL (≈ 0.177 µM) | MIC (C. auris B11245 [3]): 0.5 µg/mL (≈ 0.709 µM) | MIC of antifungal in combination with KKOO (C. albicans SC5413 [4]; +0 μg/mL KKOO (control)): > 1 µg/mL | MIC of antifungal in combination with KKOO-NH2 (C. albicans SC5413 [4]; +0 μg/mL KKOO-NH2 (control)): >1 µg/mL | MIC of antifungal in combination with KKOO-NH2 (C. albicans SC5413 [4]; +1 μg/mL KKOO-NH2): >1 µg/mL | MIC of antifungal in combination with KKOO (C. albicans SC5413 [4]; +1 μg/mL KKOO): > 1 µg/mL | MIC of antifungal in combination with KKOO-NH2 (C. albicans SC5413 [4]; +2 μg/mL KKOO-NH2): >1 µg/mL | MIC of antifungal in combination with KKOO (C. albicans SC5413 [4]; +2 μg/mL KKOO): > 1 µg/mL | MIC of antifungal in combination with KKOO-NH2 (C. albicans SC5413 [4]; +4 μg/mL KKOO-NH2): >1 µg/mL | MIC of antifungal in combination with KKOO (C. albicans SC5413 [4]; +4 μg/mL KKOO): > 1 µg/mL | MIC of antifungal in combination with KKOO (C. albicans SC5413 [4]; +8 μg/mL KKOO): > 1 µg/mL | MIC of antifungal in combination with KKOO (Cg FKS1 S629P; +0 μg/mL KKOO (control)): 0.125 µg/mL | MIC of antifungal in combination with KKOO-NH2 (Cg FKS1 S629P; +0 μg/mL KKOO-NH2 (control)): 0.062 µg/mL | MIC of antifungal in combination with KKOO-NH2 (Cg FKS1 S629P; +1 μg/mL KKOO-NH2): 0.031 µg/mL | MIC of antifungal in combination with KKOO (Cg FKS1 S629P; +1 μg/mL KKOO): 0.062 µg/mL | MIC of antifungal in combination with KKOO-NH2 (Cg FKS1 S629P; +2 μg/mL KKOO-NH2): 0.016 µg/mL | MIC of antifungal in combination with KKOO (Cg FKS1 S629P; +2 μg/mL KKOO): 0.031 µg/mL | MIC of antifungal in combination with KKOO-NH2 (Cg FKS1 S629P; +4 μg/mL KKOO-NH2): 0.008 µg/mL | MIC of antifungal in combination with KKOO (Cg FKS1 S629P; +4 μg/mL KKOO): 0.016 µg/mL | MIC of antifungal in combination with KKOO (Cg FKS2 S663P; +0 μg/mL KKOO (control)): 0.031 µg/mL | MIC of antifungal in combination with KKOO-NH2 (Cg FKS2 S663P; +0 μg/mL KKOO-NH2 (control)): 31 ng/mL | MIC of antifungal in combination with KKOO-NH2 (Cg FKS2 S663P; +1 μg/mL KKOO-NH2): 16 ng/mL | MIC of antifungal in combination with KKOO (Cg FKS2 S663P; +1 μg/mL KKOO): 0.016 µg/mL | MIC of antifungal in combination with KKOO-NH2 (Cg FKS2 S663P; +2 μg/mL KKOO-NH2): 4 ng/mL | MIC of antifungal in combination with KKOO (Cg FKS2 S663P; +2 μg/mL KKOO): 0.016 µg/mL | MIC of antifungal in combination with KKOO-NH2 (Cg FKS2 S663P; +4 μg/mL KKOO-NH2): 2 ng/mL | MIC of antifungal in combination with KKOO (Cg FKS2 S663P; +4 μg/mL KKOO): 0.556 µg/mL
